The source made the active and inactive calls. Where only a bound is given, the exact number is not on record here.

The target in one assay is T1, Streptokinase A (Streptococcus pyogenes serotype M1, UniProt P10520).
T1 sequence (P10520 whole entry): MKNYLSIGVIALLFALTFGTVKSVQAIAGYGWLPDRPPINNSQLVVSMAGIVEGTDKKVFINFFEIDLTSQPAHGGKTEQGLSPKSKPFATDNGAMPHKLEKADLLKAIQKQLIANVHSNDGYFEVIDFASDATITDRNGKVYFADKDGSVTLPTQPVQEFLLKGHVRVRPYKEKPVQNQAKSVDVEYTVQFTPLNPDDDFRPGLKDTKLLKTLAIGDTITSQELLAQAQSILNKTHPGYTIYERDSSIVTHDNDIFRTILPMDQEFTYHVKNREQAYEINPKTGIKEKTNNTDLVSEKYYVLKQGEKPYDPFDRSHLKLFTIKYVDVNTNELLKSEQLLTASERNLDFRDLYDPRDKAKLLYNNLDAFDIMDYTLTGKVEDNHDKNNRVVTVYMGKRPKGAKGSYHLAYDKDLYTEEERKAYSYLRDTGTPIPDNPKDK
Briefly: viability-normalized secreted streptokinase activity reduction – plasminogen activation absorbance, OD405, dose response (AID 1914).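 Note: secreted streptokinase activity via plasminogen activation per viability signal from cell pellet.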 It counts as functional, Streptococcus pyogenes M1 GAS.

A short description of assay [1]: viability of uninfected HEp-2 cells – cell-based, HTS, cytotoxicity control for RSV inhibitor project, dose response (AID 2410). The assay is classed as functional. To be noted: human respiratory syncytial virus.
Assay [2] concerns the target Female germline-specific tumor suppressor gld-1 (Caenorhabditis elegans, UniProt Q17339). Briefly: blockers of GLD-1/TGE RNA complex formation – biochemical, fluorescence polarization, C. elegans, dose response (AID 2802).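 Note: fluorescence polarization of labeled TGE RNA bound by purified gld-1 protein.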 Background: Fluorescence polarisation rises when a labelled molecule tumbles more slowly, as on binding a larger partner.
The target in assay [3] is T2, Polyadenylate-binding protein 1 (Homo sapiens, UniProt P11940). Put plainly: MLLE binding blockers, Cy5 peptide tracer – biochemical, fluorescence polarization, Cy5-PAM2 peptide, secondary, miRNA deadenylation inhibitor project, dose response (AID 602260). It counts as functional. To be noted: read-out: IC50_Mean.
The target of another assay is T3, Caspase-3 (Homo sapiens, UniProt P42574).
T3 sequence (P42574 whole entry): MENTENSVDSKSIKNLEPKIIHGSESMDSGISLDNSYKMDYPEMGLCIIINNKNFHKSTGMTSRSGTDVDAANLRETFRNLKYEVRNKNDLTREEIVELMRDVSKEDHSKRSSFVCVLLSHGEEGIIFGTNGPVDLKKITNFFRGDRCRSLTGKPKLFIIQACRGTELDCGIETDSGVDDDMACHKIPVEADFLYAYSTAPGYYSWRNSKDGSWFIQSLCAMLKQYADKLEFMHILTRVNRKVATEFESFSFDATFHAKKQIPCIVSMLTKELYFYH
Put plainly: SAR Analysis of small molecule inhibitors of Sentrin-specific proteases (SENPs) using a Caspase-3 Selectivity assay. [Related pubchem assays (depositor defined):AID2540, AID2599, AID434973, AID489001]. It counts as functional.

For assay [4], the target named is T4, Sentrin-specific protease 8 (Homo sapiens, UniProt Q96LD8).
T4 sequence (Q96LD8 whole entry): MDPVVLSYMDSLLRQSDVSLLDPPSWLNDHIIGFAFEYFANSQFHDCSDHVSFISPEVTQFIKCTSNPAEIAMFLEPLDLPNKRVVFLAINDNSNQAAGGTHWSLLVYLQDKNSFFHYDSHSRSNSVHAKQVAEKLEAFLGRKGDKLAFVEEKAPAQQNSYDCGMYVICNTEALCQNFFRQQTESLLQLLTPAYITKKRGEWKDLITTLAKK
Briefly: inhibition of human SENP8 cleavage activity – biochemical, luminescence, SAR follow-up (AID 504501). The assay is classed as functional.

The target in assay [5] is T2, Polyadenylate-binding protein 1. Put plainly: MLLE domain peptide-binding blockers, IC50 – biochemical, fluorescence polarization, FITC-PAM2 peptide, dose response (AID 602259). The assay is classed as functional. The following applies: read-out: IC50_Mean.
The target in assay [6] is Serine/threonine-protein phosphatase PP1-alpha catalytic subunit (Homo sapiens, UniProt P62136). Briefly: inhibition of protein phosphatase 1 activity – biochemical, fluorescence, dose response (AID 2394).
Assay [7] concerns the target Glucose-6-phosphate 1-dehydrogenase (Homo sapiens, UniProt P11413). Briefly: inhibition of Homo sapiens G6PD, dose series – biochemical, fluorescence, selectivity assay for P. falciparum G6PD inhibitor project, dose response (AID 504792). It counts as functional.
The target in assay [8] is T5, Rac GTPase-activating protein 1 (Homo sapiens, UniProt Q9H0H5).
T5 sequence (Q9H0H5 whole entry): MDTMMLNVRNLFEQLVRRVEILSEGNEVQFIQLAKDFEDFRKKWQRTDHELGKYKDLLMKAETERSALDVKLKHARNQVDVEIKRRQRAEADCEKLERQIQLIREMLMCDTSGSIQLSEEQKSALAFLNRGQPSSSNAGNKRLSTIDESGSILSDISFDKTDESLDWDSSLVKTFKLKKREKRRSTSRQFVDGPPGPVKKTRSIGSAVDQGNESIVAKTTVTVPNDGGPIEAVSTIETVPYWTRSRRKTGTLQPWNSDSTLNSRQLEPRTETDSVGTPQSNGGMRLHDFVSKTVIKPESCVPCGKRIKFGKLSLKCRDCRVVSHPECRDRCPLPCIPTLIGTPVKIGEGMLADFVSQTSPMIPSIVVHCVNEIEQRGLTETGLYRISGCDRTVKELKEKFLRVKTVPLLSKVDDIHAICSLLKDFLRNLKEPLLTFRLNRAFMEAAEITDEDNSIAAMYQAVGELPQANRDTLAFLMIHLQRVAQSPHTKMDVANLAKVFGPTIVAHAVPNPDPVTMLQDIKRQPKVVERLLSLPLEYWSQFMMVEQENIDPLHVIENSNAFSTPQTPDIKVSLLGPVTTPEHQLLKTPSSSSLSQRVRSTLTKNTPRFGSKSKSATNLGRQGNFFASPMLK
Put plainly: blockers of MgcRacGAP-driven Rac1 GTP hydrolysis – biochemical, ADP Hunter fluorescence, primary and confirmatory, confirmation (AID 624330). The assay is classed as functional.

Assay [9] relates to BJ. Briefly: growth inhibition of engineered Ras-driven BJ cells – cell-based, alamar blue fluorescence, cherrypicked samples, dose response (AID 2631).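 Note: confirmatory dose-response assay in RAS-dependent BJ fibroblasts engineered with TERT, LT and ST, with cytotoxicity read by fluorescence.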 It counts as functional. To be noted: Homo sapiens. On the technique in general: Alamar Blue is a resazurin reagent that responds to reducing activity.
In a further assay the target is Nonstructural protein 1 (Influenza A virus, UniProt Q194T2). The assay is classed as functional, Influenza A virus (A/California/07/2009(H1N1)).
Assay [10] in a line: DRD fibroblast viability loss – cell-based, non-viral oncogenic, luminescence, dose response (AID 1934). To be noted: Homo sapiens. It counts as functional.
Assay [11] relates to BJ. Put plainly: BJ-TERT fibroblast viability loss – cell-based, RAS-independent, luminescence, dose response (AID 1933). The assay is classed as functional. To be noted: Homo sapiens.
For another assay, the system named is INS1. Briefly: INS-1E survival protection against cytokine death – cell-based, luminescence, retest, dose response (AID 449756).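 Note: cell death triggered by IL-1 beta plus TNF-alpha plus IFN-gamma mixture; protective hits raise ATP signal compared with cytokine alone wells.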 The assay is classed as functional. To be noted: Rattus norvegicus.
A short description of assay [12]: Trypanosoma cruzi growth suppression in host cells – NIH3T3 host cells, beta-gal luminescence, confirmation (AID 2044).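 Note: intracellular parasites grown in NIH/3T3 mouse fibroblasts as host cells; luminescent beta-galactosidase reporter signal from transgenic T. cruzi replicating inside host cells; inhibitors lower the luminescence signal.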 The assay is classed as functional, cell-based.
A short description of assay [13]: NIH3T3 cell viability loss – ATP luminescence, mouse fibroblasts, counter-screen, dose response (AID 2010).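 Note: cells exposed to compound for about 90 hours before reading.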 It counts as functional, cell-based. Background: Counterscreens check selectivity or assay interference.
The test system of the next assay is Vero. Put plainly: viability of Vero cells under compound – cytotoxicity control for flavivirus capping enzyme inhibitors (AID 588742). It counts as functional. The following applies: Chlorocebus sabaeus.
In the next assay the target is SUMO-activating enzyme (Homo sapiens, UniProt Q9UBT2). Put plainly: blockers of UBC9-mediated SUMO conjugation – biochemical, AlphaScreen, SUMOylation inhibitor project, confirmation (AID 2018). It counts as functional.
A short description of assay [14]: microbe, parasite or virus in culture. The assay is classed as functional. The following applies: Mycobacterium tuberculosis.

T2 sequence (P11940 whole entry): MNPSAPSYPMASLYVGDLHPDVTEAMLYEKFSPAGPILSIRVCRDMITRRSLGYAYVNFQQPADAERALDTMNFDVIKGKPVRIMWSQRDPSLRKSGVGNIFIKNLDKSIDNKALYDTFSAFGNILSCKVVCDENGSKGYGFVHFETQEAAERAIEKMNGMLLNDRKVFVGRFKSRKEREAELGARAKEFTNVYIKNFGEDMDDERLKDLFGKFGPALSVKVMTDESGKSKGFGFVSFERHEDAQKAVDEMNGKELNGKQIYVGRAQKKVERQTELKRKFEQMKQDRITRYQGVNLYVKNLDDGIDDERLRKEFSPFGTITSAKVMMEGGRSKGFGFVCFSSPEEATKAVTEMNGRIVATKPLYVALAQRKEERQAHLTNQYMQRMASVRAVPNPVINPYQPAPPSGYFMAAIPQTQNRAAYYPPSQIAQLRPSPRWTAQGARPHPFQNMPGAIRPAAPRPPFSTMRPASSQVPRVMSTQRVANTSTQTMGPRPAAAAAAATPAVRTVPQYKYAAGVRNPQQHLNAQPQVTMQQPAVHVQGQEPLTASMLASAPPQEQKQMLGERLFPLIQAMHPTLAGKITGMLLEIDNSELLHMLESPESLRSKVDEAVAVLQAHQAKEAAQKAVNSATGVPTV
Chain of Nonstructural protein 1 (Q194T2 whole entry): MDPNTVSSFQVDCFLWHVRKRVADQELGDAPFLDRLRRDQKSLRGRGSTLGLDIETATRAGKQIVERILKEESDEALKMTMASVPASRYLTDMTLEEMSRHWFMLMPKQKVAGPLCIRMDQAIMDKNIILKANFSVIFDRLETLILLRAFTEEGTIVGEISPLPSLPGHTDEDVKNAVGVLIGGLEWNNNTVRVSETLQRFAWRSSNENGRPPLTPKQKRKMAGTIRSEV
Chain of Serine/threonine-protein phosphatase PP1-alpha catalytic subunit (P62136 whole entry): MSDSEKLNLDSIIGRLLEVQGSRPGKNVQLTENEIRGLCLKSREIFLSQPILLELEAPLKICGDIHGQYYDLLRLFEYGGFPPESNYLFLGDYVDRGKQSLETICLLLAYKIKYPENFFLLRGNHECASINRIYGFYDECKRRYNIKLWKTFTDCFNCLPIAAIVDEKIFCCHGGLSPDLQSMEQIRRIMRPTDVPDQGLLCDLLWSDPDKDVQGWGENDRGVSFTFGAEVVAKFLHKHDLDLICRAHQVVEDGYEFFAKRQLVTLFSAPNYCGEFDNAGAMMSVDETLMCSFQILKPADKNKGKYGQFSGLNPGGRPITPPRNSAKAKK
Chain of Female germline-specific tumor suppressor gld-1 (Q17339 whole entry): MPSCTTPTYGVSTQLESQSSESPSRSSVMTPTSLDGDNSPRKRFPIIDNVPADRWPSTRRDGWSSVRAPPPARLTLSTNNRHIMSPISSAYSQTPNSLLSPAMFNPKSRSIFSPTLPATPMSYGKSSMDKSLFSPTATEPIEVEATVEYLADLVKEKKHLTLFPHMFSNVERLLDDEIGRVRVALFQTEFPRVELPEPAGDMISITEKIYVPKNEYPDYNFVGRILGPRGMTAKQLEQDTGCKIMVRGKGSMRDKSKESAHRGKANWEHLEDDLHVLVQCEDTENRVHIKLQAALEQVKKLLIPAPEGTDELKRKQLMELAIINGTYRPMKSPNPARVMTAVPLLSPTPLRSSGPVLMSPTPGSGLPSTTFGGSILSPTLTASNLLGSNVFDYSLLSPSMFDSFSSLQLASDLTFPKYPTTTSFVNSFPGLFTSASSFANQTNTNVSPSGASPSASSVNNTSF
Chain of SUMO-activating enzyme (Q9UBE0 whole entry): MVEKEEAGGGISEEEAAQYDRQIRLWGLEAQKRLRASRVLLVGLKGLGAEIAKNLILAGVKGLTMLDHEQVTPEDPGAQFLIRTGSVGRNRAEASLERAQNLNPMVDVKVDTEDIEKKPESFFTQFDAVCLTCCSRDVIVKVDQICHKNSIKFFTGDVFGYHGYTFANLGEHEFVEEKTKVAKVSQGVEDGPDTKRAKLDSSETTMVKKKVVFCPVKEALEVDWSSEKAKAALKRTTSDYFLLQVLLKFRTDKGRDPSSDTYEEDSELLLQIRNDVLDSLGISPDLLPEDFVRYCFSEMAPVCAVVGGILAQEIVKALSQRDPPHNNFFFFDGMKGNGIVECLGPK
Chain of SUMO-activating enzyme (Q9UBT2 whole entry): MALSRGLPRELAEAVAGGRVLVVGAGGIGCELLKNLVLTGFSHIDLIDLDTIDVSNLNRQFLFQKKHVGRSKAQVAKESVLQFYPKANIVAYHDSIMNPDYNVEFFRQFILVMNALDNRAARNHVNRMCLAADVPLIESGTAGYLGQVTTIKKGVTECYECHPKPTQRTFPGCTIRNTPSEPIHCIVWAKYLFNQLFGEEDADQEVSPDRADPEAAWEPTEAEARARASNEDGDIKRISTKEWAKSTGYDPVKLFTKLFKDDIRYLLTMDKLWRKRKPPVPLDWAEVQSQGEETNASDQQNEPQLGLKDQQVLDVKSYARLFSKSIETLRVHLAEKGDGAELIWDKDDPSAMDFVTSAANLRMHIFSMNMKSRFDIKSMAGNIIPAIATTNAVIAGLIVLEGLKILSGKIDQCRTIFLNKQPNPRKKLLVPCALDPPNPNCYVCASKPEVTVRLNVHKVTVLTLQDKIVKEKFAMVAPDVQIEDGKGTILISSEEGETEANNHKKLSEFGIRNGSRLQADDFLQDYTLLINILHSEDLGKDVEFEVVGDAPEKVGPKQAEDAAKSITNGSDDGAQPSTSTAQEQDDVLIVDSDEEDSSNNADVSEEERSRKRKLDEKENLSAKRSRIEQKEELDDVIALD
Chain of Glucose-6-phosphate 1-dehydrogenase (P11413 whole entry): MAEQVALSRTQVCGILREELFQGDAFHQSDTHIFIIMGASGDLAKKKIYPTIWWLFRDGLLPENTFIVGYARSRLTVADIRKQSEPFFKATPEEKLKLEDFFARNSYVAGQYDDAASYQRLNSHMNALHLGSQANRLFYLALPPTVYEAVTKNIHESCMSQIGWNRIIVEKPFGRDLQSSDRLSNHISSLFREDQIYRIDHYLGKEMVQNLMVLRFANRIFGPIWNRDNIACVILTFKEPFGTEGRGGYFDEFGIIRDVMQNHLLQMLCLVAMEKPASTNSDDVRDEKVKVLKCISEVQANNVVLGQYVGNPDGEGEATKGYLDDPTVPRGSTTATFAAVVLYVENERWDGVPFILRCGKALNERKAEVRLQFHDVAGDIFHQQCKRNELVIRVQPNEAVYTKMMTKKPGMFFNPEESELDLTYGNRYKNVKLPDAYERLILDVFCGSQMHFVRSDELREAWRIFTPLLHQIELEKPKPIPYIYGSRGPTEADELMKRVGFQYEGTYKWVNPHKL

As to `Cc1cccc(C)c1-n1cccc1/C=C1\SC(=S)N(c2cccc(C(=O)O)c2)C1=O`, at Streptokinase A, the EC50 was 3.8 µM (active). In addition, the CC50 in assay [1] was 12.8 µM (active).
`Oc1ccc(/C=N/Nc2cc(N3CCCC3)nc(N3CCCC3)n2)cc1`: the IC50 in [2] was 2.75 µM (active); in [3], > 66 µM (inactive); at Caspase-3 it was > 99 µM (inactive); in [4] it was > 99 µM (inactive); in [5], 34.4 µM (inactive); in assay [6], > 67 µM (not active).
Consider `COc1ccc(S(=O)(=O)/N=C2\C=C(Nc3ccc(O)cc3)C(=O)c3ccccc32)cc1`, for which the IC50 in assay [7] was > 80 µM (inactive); in assay [8], 50.7 µM (active); at Nonstructural protein 1 it was 8.09 µM (active). Also, the results for the half-maximal effective concentration (EC50) (in the assay with BJ [9]; in assay [10]; with BJ [11]) were 0.507 µM (inconclusive), 2.89 µM (active) and 1.53 µM (active), respectively. In addition, the AC50 with INS1 is 0.592 µM (active).
In the case of `COc1ccc(/C=N/Nc2cc(N3CCCC3)nc(N3CCCC3)n2)cc1`, the EC50 was 1.71 µM (active) in [12] and 8.97 µM (active) in assay [13]. Also, the CC50 in the assay with Vero was 24.7 µM (active); in [14], 20.3 µM (active). For the same compound, the IC50 on SUMO-activating enzyme is 0.68 µM (active).

What is called EC50 is the midpoint of the concentration-response curve. For orientation: AC50 means the midpoint of the concentration-response curve, whichever way the signal moves.
